Measured values taken from patent US20070010402A1, “Novel herbicides, usage thereof, novel thienopyrimidine derivatives, intermediates of the same, and process for production thereof” (NIHON NOHYAKU CO., LTD.,, priority 2002, published 2007).

Legend:
Type in all cases: in vivo
Echinochloa oryzicola = test: Submerged foliar treatment test (Test Example 3); settings: water depth 3 cm, cotyledon to 1-leaf stage, wettable powder, active ingredient 10 g/a, 28th day from the treatment
Experimental: (§1) The herbicidal effect was evaluated in terms of herbicidal rate obtained from the following equation: Herbicidal rate (%)=[1−(Weight of weeds above the ground in a treated plot)/(Weight of weeds above the ground in a non-treated plot)]×100
(§2) and was expressed by herbicidal index according to the following criteria.
(§3) Alluvial soil from a paddy field was put in a resin-made vat having an area of 200 cm^2. After fertilization, seeds of Echinochloa oryzicola, Rotala indica and Scirpus juncoides were cast on the soil and uniformly covered with the soil, and water was poured onto the soil to keep a water depth of 3 cm. Then, cultivation was continued in a greenhouse, and when the weeds to be tested reached the cotyledon stage to 1-leaf stage, the wettable powder obtained in Formulation Example 1 was diluted with water and a predetermined amount thereof was added dropwise uniformly to the weeds by means of a pipette to give 10 g of the active ingredient per an are. Thereafter, cultivation was further continued in the greenhouse, and the herbicidal effect was examined on the 28th day from the treatment. The results obtained are shown in Table 9 (the compound numbers in Table 9 correspond to those in Tables 1 to 6).

Rotala indica = test: Submerged foliar treatment test (Test Example 3); settings: water depth 3 cm, cotyledon to 1-leaf stage, wettable powder, active ingredient 10 g/a, 28th day from the treatment
Experimental: as §1, §2, §3

Scirpus juncoides = test: Submerged foliar treatment test (Test Example 3); settings: water depth 3 cm, cotyledon to 1-leaf stage, wettable powder, active ingredient 10 g/a, 28th day from the treatment
Experimental: as §1, §2, §3

Echinochloa crus-galli = test: Field foliar treatment test (Test Example 1); settings: foliar spray at 1.0- to 2.0-leaf stage, wettable powder, active ingredient 10 g/a, 21st day from the treatment
Experimental: (§4) Alluvial soil from a field was put in a resin-made vat having an area of 200 cm^2. After fertilization, the seeds of Echinochloa crus-galli, Brassica juncea, and Ipomoea purpurea were cast on the soil and uniformly covered with the soil. Then, cultivation was continued in a greenhouse, and when the weeds to be tested reached the 1.0- to 2.0-leaf stage, the wettable powder obtained in Formulation Example 1 was diluted with water and a predetermined amount thereof was sprayed uniformly to the weeds by means of a small-sized power pressure spray to give 10 g of the active ingredient per an are. Thereafter, cultivation was further continued in the greenhouse, and the herbicidal effect was examined on the 21st day from the treatment. The results obtained are shown in Table 7 (the compound numbers in Table 7 correspond to those in Table 1 to 6). The herbicidal effect was evaluated in terms of herbicidal rate obtained from the following equation: Herbicidal rate (%)=[1−(Weight of weeds above the ground in a treated plot)/(Weight of weeds above the ground in a non-treated plot)]×100 and was expressed by herbicidal index according to the following criteria. [table]

Brassica juncea = test: Field foliar treatment test (Test Example 1); settings: foliar spray at 1.0- to 2.0-leaf stage, wettable powder, active ingredient 10 g/a, 21st day from the treatment
Experimental: as §4

Ipomoea purpurea = test: Field foliar treatment test (Test Example 1); settings: foliar spray at 1.0- to 2.0-leaf stage, wettable powder, active ingredient 10 g/a, 21st day from the treatment
Experimental: as §4

| Compound | Herbicidal effect Echinochloa oryzicola (herbicidal index) (Echinochloa oryzicola) | Herbicidal effect Rotala indica (herbicidal index) (Rotala indica) | Herbicidal effect Scirpus juncoides (herbicidal index) (Scirpus juncoides) | Herbicidal effect Echinochloa crus-galli (herbicidal index) (Echinochloa crus-galli) | Herbicidal effect Brassica juncea (herbicidal index) (Brassica juncea) | Herbicidal effect Ipomoea purpurea (herbicidal index) (Ipomoea purpurea) |
| --- | --- | --- | --- | --- | --- | --- |
| Cc1cc2c(-c3cccc(C(F)(F)F)c3)nc(OS(=O)(=O)CCCCl)nc2s1 [6-157] | 5 (91 to 100) | 5 (91 to 100) | 4 (71 to 90) | – | – | – |
| Cc1cc2c(-c3cccc(OC(F)(F)F)c3)nc(Cl)nc2s1 [5-9] | 5 (91 to 100) | 5 (91 to 100) | 4 (71 to 90) | – | – | – |
| CCOc1nc(-c2sccc2C)c2cc(C)sc2n1 [6-50] | 3 (51 to 70) | 4 (71 to 90) | 3 (51 to 70) | – | – | – |
| Cc1cc2c(-c3cccc(SC(F)(F)F)c3)nc(OCC(F)F)nc2s1 [6-116] | 5 (91 to 100) | 5 (91 to 100) | 4 (71 to 90) | – | – | – |
| Cc1cc2c(-c3cccc(OC(F)F)c3)nc(OC(C)C)nc2s1 [6-41] | 5 (91 to 100) | 5 (91 to 100) | 4 (71 to 90) | – | – | – |
| Cc1cc2c(-c3cccc(SC(F)(F)F)c3)nc(OC3CCCC3)nc2s1 [6-86] | 5 (91 to 100) | 5 (91 to 100) | 4 (71 to 90) | – | – | – |
| Cc1cc2c(-n3ccc(C(F)(F)F)n3)nc(-n3ccc(C(F)(F)F)n3)nc2s1 [6-200] | 3 (51 to 70) | 5 (91 to 100) | 3 (51 to 70) | – | – | – |
| CCCCCOc1nc(-c2ccccc2C)c2cc(C)sc2n1 [6-47] | 4 (71 to 90) | 3 (51 to 70) | 1 (6 to 30) | – | – | – |
| Cc1cc2c(-c3cccc(C(F)(F)F)c3)nc(OS(=O)(=O)N(C)C)nc2s1 [6-160] | 5 (91 to 100) | 5 (91 to 100) | 4 (71 to 90) | – | – | – |
| Cc1cc2c(-c3cccc(C(F)(F)F)c3)nc(OC(C)C(C)C)nc2s1 (stereo not drawn) [6-72] | 5 (91 to 100) | 5 (91 to 100) | 3 (51 to 70) | – | – | – |
| Cc1cc2c(-c3cccc(SC(F)F)c3)nc(OCC(F)(F)F)nc2s1 [6-127] | 5 (91 to 100) | 5 (91 to 100) | 4 (71 to 90) | – | – | – |
| Cc1cc2c(-c3cccc(C(F)(F)F)c3)nc(N(C)C)nc2s1 [6-169] | 5 (91 to 100) | 5 (91 to 100) | 2 (31 to 50) | – | – | – |
| CCCOc1nc(-c2ccccc2Cl)c2cc(C)sc2n1 [6-56] | 5 (91 to 100) | 5 (91 to 100) | 4 (71 to 90) | – | – | – |
| Cc1cc2c(-c3ccccc3C(F)(F)F)nc(-n3ccnc3)nc2s1 [6-191] | 5 (91 to 100) | 5 (91 to 100) | 3 (51 to 70) | – | – | – |
| CCCOc1nc(-c2cccc(Cl)c2)c2cc(C)sc2n1 [6-52] | 5 (91 to 100) | 5 (91 to 100) | 3 (51 to 70) | – | – | – |
| Cc1cc2c(-c3cccc(C(F)(F)F)c3)nc(S(C)(=O)=O)nc2s1 [6-174] | 1 (6 to 30) | 5 (91 to 100) | 3 (51 to 70) | – | – | – |
| Cc1cc2c(-c3cccc(Cl)c3)nc(OC3CCCC3)nc2s1 [6-54] | 5 (91 to 100) | 5 (91 to 100) | 4 (71 to 90) | – | – | – |
| Cc1cc2c(Oc3cccc(C(F)(F)F)c3)nc(-n3ccc(C(F)(F)F)n3)nc2s1 [6-201] | 5 (91 to 100) | 5 (91 to 100) | 3 (51 to 70) | – | – | – |
| CCCOc1nc(-c2cccc(OC)c2)c2cc(C)sc2n1 [6-62] | 5 (91 to 100) | 5 (91 to 100) | 5 (91 to 100) | – | – | – |
| Cc1cc2c(-c3cccc(SC(F)(F)F)c3)nc(OS(C)(=O)=O)nc2s1 [6-164] | 5 (91 to 100) | 5 (91 to 100) | 4 (71 to 90) | – | – | – |
| CCCOc1nc(-c2cccc(C(F)(F)F)c2)c2cc(CC)sc2n1 [6-8] | 5 (91 to 100) | 4 (71 to 90) | 4 (71 to 90) | – | – | – |
| Cc1cc2c(-c3cccc(C(F)(F)F)c3)nc(Oc3ccccc3)nc2s1 [6-146] | 4 (71 to 90) | 5 (91 to 100) | 2 (31 to 50) | – | – | – |
| Cc1cc2c(-c3ccccc3C(F)(F)F)nc(Cl)nc2s1 [Compound No. 5-3] | 5 (91 to 100) | 5 (91 to 100) | 3 (51 to 70) | – | – | – |
| CCOc1nc(-c2cccc(C(F)(F)F)c2)c2cc(C)sc2n1 [6-24] | 5 (91 to 100) | 5 (91 to 100) | 4 (71 to 90) | – | – | – |
| C#CC(C)Oc1nc(-c2cccc(OC(F)(F)F)c2)c2sc(C)cc2n1 (stereo not drawn) [6-236] | – | – | – | 5 (91 to 100) | 5 (91 to 100) | 5 (91 to 100) |
| Cc1cc2c(-c3cccc(OC(F)(F)F)c3)nc(OCC(F)(F)C(F)F)nc2s1 [6-112] | – | – | – | 5 (91 to 100) | 5 (91 to 100) | 5 (91 to 100) |
